What was measured:
blackgrass = test: Test D preemergence; format: in vivo, Alopecurus myosuroides; conditions: scale 0 to 100
How it was run: (§1)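 Postemergence activity was tested on plants at the 1- to 4-leaf stage (2–18 cm) grown in peat-based medium, and preemergence activity on seeds in silt loam, with chemicals in a surfactant-containing non-phytotoxic solvent. Controlled-environment growth lasted 14–21 days before visual 0–100 scoring.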

canarygrass [1] = test: Test D preemergence; format: in vivo, Phalaris minor; conditions: scale 0 to 100
From the text: (§2) Seeds of plant species selected from bluegrass (annual bluegrass, Poa annua), blackgrass (Alopecurus myosuroides), canarygrass (littleseed canarygrass, Phalaris minor), chickweed (common chickweed, Stellaria media), galium (catchweed bedstraw, Galium aparine), bromegrass, downy (downy bromegrass, Bromus tectorum), field poppy (Papaver rhoeas), field violet (Viola arvensis), foxtail, green (green foxtail, Setaria viridis), deadnettle (henbit deadnettle, Lamium amplexicaule), ryegrass, Italian (Italian ryegrass, Lolium multiflorum), kochia (Kochia scoparia), lambsquarters (Chenopodium album), oilseed rape (Brassica napus), pigweed (redroot pigweed, Amaranthus retroflexus), chamomile (scentless chamomile, Matricaria inodora), speedwell (bird's-eye speedwell, Veronica persica), barley, spring (spring barley, Hordeum vulgare), wheat, spring (spring wheat, Triticum aestivum), buckwheat, wild (wild buckwheat, Polygonum convolvulus), mustard, wild (wild mustard, Sinapis arvensis), oat, wild (wild oat, Avena fatua), radish, wild (wild radish, Raphanus raphanistrum), windgrass (Apera spica-venti), Russian thistle (Salsola kali), barley, winter (winter barley, Hordeum vulgare), and wheat, winter (winter wheat, Triticum aestivum) were planted into a silt loam soil and treated preemergence with test chemicals formulated in a non-phytotoxic solvent mixture which included a surfactant.
(§3) At the same time, these species were planted in pots containing Redi-Earth® planting medium (Scotts Company, 14111 Scottslawn Road, Marysville, Ohio 43041) comprising spaghnum peat moss, vermiculite, wetting agent and starter nutrients and treated with postemergence applications of the test chemicals formulated in the same manner. Plants ranged in height from 2 to 18 cm (1- to 4-leaf stage). Treated plants and controls were maintained in a controlled growth environment for 14 to 21 days after which time all species were compared to controls and visually evaluated. Plant response ratings, summarized in Table D, are based on a scale of 0 to 100 where 0 is no effect and 100 is complete control. A dash (-) response means no test result.

galium = test: Test D preemergence; format: in vivo, Galium aparine; conditions: scale 0 to 100
From the text: as §2, §3

kochia = test: Test D preemergence; format: in vivo, Kochia scoparia; conditions: scale 0 to 100
How it was run: as §1

wheat, spring = test: Test D preemergence; format: in vivo, Triticum aestivum; conditions: scale 0 to 100
How it was run: as §1

wheat, winter = test: Test D preemergence; format: in vivo, Triticum aestivum; conditions: scale 0 to 100
How it was run: as §1

buckwheat, wild = test: Test D preemergence; format: in vivo, Polygonum convolvulus; conditions: scale 0 to 100
From the text: as §2, §3

canarygrass [2] = test: Test D postemergence; format: in vivo, Phalaris minor; conditions: scale 0 to 100
From the text: as §2, §3

bromegrass, downy = test: Test D postemergence; format: in vivo, Bromus tectorum; conditions: scale 0 to 100
How it was run: as §1

mustard, wild = test: Test D postemergence; format: in vivo, Sinapis arvensis; conditions: scale 0 to 100
How it was run: as §1

common waterhemp = test: Test F preemergence; format: in vivo, Amaranthus rudis
From the text: (§4) Seeds of plant species selected from corn (Zea mays), soybean (Glycine max), velvetleaf (Abutilon theophrasti), lambsquarters (Chenopodium album), wild poinsettia (Euphorbia heterophylla), pigweed, palmer (palmer pigweed, Amaranthus palmeri), common waterhemp (Amaranthus rudis), surinam grass (Brachiaria decumbens), large crabgrass (Digitaria sanguinalis), crabgrass, Brazil (Brazilian crabgrass, Digitaria horizontalis), fall panicum (Panicum dichotomiflorum), giant foxtail (Setaria faberii), green foxtail (Setaria viridis), goosegrass (Eleusine indica), johnsongrass (Sorghum halepense), common ragweed (Ambrosia elation), barnyardgrass (Echinochloa crus-galli), southern sandbur (Cenchrus echinatus), arrowleaf sida (Sida rhombifolia), Italian ryegrass (Lolium multiflorum), dayflower, VA (Virginia (VA) dayflower, Commelina virginica), field bindweed (Convolvulus arvensis), cocklebur (common cocklebur, Xanthium strumarium), morningglory (Ipomoea coccinea), nightshade (eastern black nightshade, Solanum ptycanthum), kochia (Kochia scoparia), yellow nutsedge (Cyperus esculentus), and hairy beggarticks (Bidens pilosa), were planted into a silt loam soil and treated preemergence with test chemicals formulated in a non-phytotoxic solvent mixture which included a surfactant.
(§5) At the same time, plants from these crop and weed species and also horseweed (Canada horseweed, Conyza canadensis), smartweed (ladysthumb smartweed, Polygonum persicaria), waterhemp_RES1, (ALS & Triazine resistant common waterhemp, Amaranthus rudis), and waterhemp_RES2, (ALS & HPPD resistant common waterhemp, Amaranthus rudis) were treated with postemergence applications of test chemicals formulated in the same manner. Plants ranged in height from 2 to 18 cm for postemergence treatments (1- to 4-leaf stage). Treated plants and controls were maintained in a greenhouse for 14 to 21 days, after which time all species were compared to controls and visually evaluated. Plant response ratings, summarized in Table F, are based on a scale of 0 to 100 where 0 is no effect and 100 is complete control. A dash (-) response means no test result.

large crabgrass = test: Test F preemergence; format: in vivo, Digitaria sanguinalis
From the text: as §4, §5

goosegrass = test: Test F preemergence; format: in vivo, Eleusine indica
From the text: as §4, §5

Italian ryegrass = test: Test F preemergence; format: in vivo, Lolium multiflorum
How it was run: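 Plant response is scored by eye relative to controls on a 0 to 100 scale, where 100 means complete control. Preemergence applications were made to seeded silt loam; postemergence ones to seedlings 2 to 18 cm high. Greenhouse holding time was 14 to 21 days.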

[3] = Preemergence, 31 g ai/ha, scale 0 to 100
[4] = Preemergence, 62 g ai/ha, scale 0 to 100
[5] = Preemergence, 125 g ai/ha, scale 0 to 100
[6] = preemergence, 8 g ai/ha, scale 0 to 100, 100 is complete control
[7] = preemergence, 16 g ai/ha, scale 0 to 100, 100 is complete control

CCCc1cc(C(=O)NCC(F)(F)F)nn1Cc1ccnc(C(F)(F)F)c1 [Compound 105]
Plant response rating, Blackgrass (blackgrass; 31 g ai/ha): 25
Plant response rating, Blackgrass (blackgrass; 62 g ai/ha): 80
Plant response rating, Blackgrass (blackgrass; 125 g ai/ha): 100
Plant response rating, Blackgrass (blackgrass; 250 g ai/ha): 100
Plant response rating, Canarygrass (canarygrass [1]; 31 g ai/ha): 15
Plant response rating, Canarygrass (canarygrass [1]; 62 g ai/ha): 60
Plant response rating, Canarygrass (canarygrass [1]; 125 g ai/ha): 100
Plant response rating, Canarygrass (canarygrass [1]; 250 g ai/ha): 100
Plant response rating, Galium (galium; 31 g ai/ha): 100
Plant response rating, Galium (galium; 62 g ai/ha): 100
Plant response rating, Galium (galium; 125 g ai/ha): 100
Plant response rating, Galium (galium; 250 g ai/ha): 100
Plant response rating, Kochia (kochia; 31 g ai/ha): 95
Plant response rating, Kochia (kochia; 62 g ai/ha): 100
Plant response rating, Kochia (kochia; 125 g ai/ha): 100
Plant response rating, Kochia (kochia; 250 g ai/ha): 100
Plant response rating, Wheat, Spring (wheat, spring; 31 g ai/ha): 10
Plant response rating, Wheat, Spring (wheat, spring; 62 g ai/ha): 40
Plant response rating, Wheat, Spring (wheat, spring; 125 g ai/ha): 75
Plant response rating, Wheat, Spring (wheat, spring; 250 g ai/ha): 100
Plant response rating, Wheat, Winter (wheat, winter; 31 g ai/ha): 15
Plant response rating, Wheat, Winter (wheat, winter; 62 g ai/ha): 35
Plant response rating, Wheat, Winter (wheat, winter; 125 g ai/ha): 75
Plant response rating, Wheat, Winter (wheat, winter; 250 g ai/ha): 90
Plant response rating, Buckwheat, Wild (buckwheat, wild; 31 g ai/ha): 85
Plant response rating, Buckwheat, Wild (buckwheat, wild; 62 g ai/ha): 90
Plant response rating, Buckwheat, Wild (buckwheat, wild; 125 g ai/ha): 95
Plant response rating, Buckwheat, Wild (buckwheat, wild; 250 g ai/ha): 100
Canarygrass plant response rating (canarygrass [2]; Postemergence, 31 g ai/ha): 10
Canarygrass plant response rating (canarygrass [2]; Postemergence, 125 g ai/ha): 25
Canarygrass plant response rating (canarygrass [2]; Postemergence, 250 g ai/ha): 40
Canarygrass plant response rating (canarygrass [2]; postemergence, 62 g ai/ha): 15
Bromegrass, Downy plant response rating (bromegrass, downy; Postemergence, 31 g ai/ha): 10
Bromegrass, Downy plant response rating (bromegrass, downy; Postemergence, 125 g ai/ha): 20
Bromegrass, Downy plant response rating (bromegrass, downy; Postemergence, 250 g ai/ha): 30
Bromegrass, Downy plant response rating (bromegrass, downy; postemergence, 62 g ai/ha): 15
Mustard, Wild plant response rating (mustard, wild; Postemergence, 31 g ai/ha): 70
Mustard, Wild plant response rating (mustard, wild; Postemergence, 125 g ai/ha): 85
Mustard, Wild plant response rating (mustard, wild; Postemergence, 250 g ai/ha): 90
Mustard, Wild plant response rating (mustard, wild; postemergence, 62 g ai/ha): 60
Plant response rating, Common Waterhemp (common waterhemp; [3]): 100
Plant response rating, Common Waterhemp (common waterhemp; [4]): 100
Plant response rating, Common Waterhemp (common waterhemp; [5]): 100
Plant response rating, Common Waterhemp (common waterhemp; [6]): 75
Plant response rating, Common Waterhemp (common waterhemp; [7]): 100
Plant response rating, Large Crabgrass (large crabgrass; [3]): 98
Plant response rating, Large Crabgrass (large crabgrass; [4]): 100
Plant response rating, Large Crabgrass (large crabgrass; [5]): 100
Plant response rating, Large Crabgrass (large crabgrass; [6]): 65
Plant response rating, Large Crabgrass (large crabgrass; [7]): 70
Plant response rating, Goosegrass (goosegrass; [3]): 40
Plant response rating, Goosegrass (goosegrass; [4]): 90
Plant response rating, Goosegrass (goosegrass; [5]): 98
Plant response rating, Goosegrass (goosegrass; [6]): 30
Plant response rating, Goosegrass (goosegrass; [7]): 35
Plant response rating, Italian Ryegrass (Italian ryegrass; [3]): 50
Plant response rating, Italian Ryegrass (Italian ryegrass; [4]): 60
Plant response rating, Italian Ryegrass (Italian ryegrass; [5]): 80
Plant response rating, Italian Ryegrass (Italian ryegrass; [6]): 0
Plant response rating, Italian Ryegrass (Italian ryegrass; [7]): 0

Source: patent US20150105252A1, “SUBSTITUTED PYRAZOLES AS HERBICIDES” (E I DU PONT DE NEMOURS AND COMPANY, priority 2013, published 2015)
